pEC50: −log10 of the molar value.

This note sets out measurements from US20240166649A1, “DIHYDROPYRIMIDINE COMPOUND, PREPARATION METHOD THEREFOR AND APPLICATION THEREOF” (Shanghai Visonpharma Co., Ltd., priority 2021, published 2024).

Series [1] deals with HBV (hepatitis B virus) in HepG2.2.15 cells. Description: Cell-based anti-viral activity assay (HBV DNA in supernatant by quantitative PCR). The note with it: 120 h, anti-HBV activity, HepG2.2.15 cells, 5 days, read-out: EC50 (HepG2.2.15). In a few lines:
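HepG2.2.15 cells (stably carrying HBV genome) treated with 3.16-fold compound dilutions, final 1% DMSO, for 5 days at 37 °C. Supernatant HBV DNA quantified by qPCR against a standard curve; % inhibition normalised to DMSO and high-concentration reference compound wells.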

Series [2] is described as follows: Cytotoxicity assay (CellTiter Glo). The class given is cell-based. The note with it: human; HepG2.2.15 cells, five days post treatment. The procedure:
The Invention Determined Cytotoxicity of the Compounds Against HepG2.2.15 Cells (Table 2)
HepG2.2.15 cells were seeded into 96-well plates (8000 cells per well) and cell viability was measured by the addition of 60 μL of CellTiter Glo reagent (Promega) five days post treatment with the compounds. Cell plates with CellTiter Glo added were shaken on a plate shaker for 20 min and then the chemiluminescence signal was stabilized at room temperature for 10 min. Chemiluminescence values were read using a microplate reader (Bio-TeK SYNERGY NEO2).
The concentration corresponding to 50% cytotoxicity (CC50) was fitted by graphpad prism software. The cytotoxicity was calculated by the formula: % Cytotoxicity=100−(chemiluminescence value of sample Well −average chemiluminescence value of blank medium column)/(average chemiluminescence value of DMSO column −average chemiluminescence value of blank medium column)*100
Background: ATP-based viability assays read luminescence as a measure of living cells.

Broadly, the pEC50 is the negative decadic logarithm of the EC50, by convention in mol/L. A word on the CC50: it is the concentration at which the toxic effect on the cells reaches its halfway point. Consider `CCOC(=O)C1=C(CN2CCN3C(=O)N(C45CC(COC)(C4)C5)C[C@@H]3[C@@H]2C(=O)O)NC(c2nccs2)=N[C@H]1c1cccc(F)c1C` [Compound 48, (8R,8aR)-7-(((S)-5-(Ethoxycarbonyl)-6-(3-Fluoro-2-Methylphenyl)-2-(Thiazol-2-Yl)-3,6-Dihydropyrimidin-4-Yl)Methyl)-2-(3-(Methoxymethyl)Bicyclo[1.1.1]Pentan-1-Yl)-3-Oxooctahydroimidazo[1,5-a]Pyrazine-8-Carboxylic Acid], for which, in series [1], the pEC50 is 7.82. The CC50 at 5 days in series [2] is above 50000 nM.

Turning to `CCOC(=O)C1=C(CN2CCN3C(=O)N(C45CC(N(C)CC(=O)O)(C4)C5)C[C@@H]3C2)NC(c2nccs2)=N[C@H]1c1cccc(F)c1C` [Compound 49, N-(3-((S)-7-(((S)-5-(Ethoxycarbonyl)-6-(3-Fluoro-2-Methylphenyl)-2-(Thiazol-2-Yl)-3,6-Dihydropyrimidin-4-Yl)Methyl)-3-Oxohexahydroimidazo[1,5-a]Pyrazin-2(3H)-Yl)Bicyclo[1.1.1]Pentan-1-Yl)-N-Methylglycine], the pEC50 in series [1] is 7.77. Moreover, in series [2], the CC50 at 5 days was above 50000 nM.

Regarding `CCOC(=O)C1=C(CN2CCN3C(=O)N(C45CC(COC)(C4)C5)C[C@@H]3[C@H]2C(=O)O)NC(c2nccs2)=N[C@H]1c1cccc(F)c1C` [Compound 47, (8S,8aR)-7-(((S)-5-(Ethoxycarbonyl)-6-(3-Fluoro-2-Methylphenyl)-2-(Thiazol-2-Yl)-3,6-Dihydropyrimidin-4-Yl)Methyl)-2-(3-(Methoxymethyl)Bicyclo[1.1.1]Pentan-1-Yl)-3-Oxooctahydroimidazo[1,5-a]Pyrazine-8-Carboxylic Acid], the pEC50 in series [1] is 7.74. In addition, the CC50 at 5 days in series [2] is above 50000 nM.

Regarding `CCOC(=O)C1=C(CN2CCN3C(=O)N(C45CCC(C(=O)O)(CC4)C5)C[C@@H]3C2)NC(c2nccs2)=N[C@H]1c1ccc(F)cc1Cl` [Compound 60, 4-((S)-7-(((R)-6-(2-Chloro-4-Fluorophenyl)-5-(Ethoxycarbonyl)-2-(Thiazol-2-Yl)-3,6-Dihydropyrimidin-4-Yl)Methyl)-3-Oxohexahydroimidazo[1,5-a]Pyrazin-2(3H)-Yl)Bicyclo[2.2.1]Heptane-1-Carboxylic Acid], the pEC50 in series [1] was 8.05. Besides, the CC50 at 5 days in series [2] was above 50000 nM.

`CCOC(=O)C1=C(CN2CCN3C(=O)N(C45CC(C(=O)O)(C4)C5)C[C@@H]3C2)NC(c2nccs2)=N[C@H]1c1cccc(F)c1C` [Compound 1, 3-((S)-7-(((S)-5-(Ethoxycarbonyl)-6-(3-Fluoro-2-Methylphenyl)-2-(Thiazol-2-Yl)-3,6-Dihydropyrimidin-4-Yl)Methyl)-3-Oxohexahydroimidazo[1,5-a]Pyrazin-2(3H)-Yl)Bicyclo[1.1.1]Pentane-1-Carboxylic Acid]: the pEC50 in series [1] is 7.48. Also, the CC50 at 5 days in series [2] is above 50000 nM.

For `CCOC(=O)C1=C(CN2CCN3C(=O)N(C45CC(NS(C)(=O)=O)(C4)C5)C[C@@H]3[C@H]2C(=O)O)NC(c2nccs2)=N[C@H]1c1cccc(F)c1C` [Compound 46, (8S,8aR)-7-(((S)-5-(Ethoxycarbonyl)-6-(3-Fluoro-2-Methylphenyl)-2-(Thiazol-2-Yl)-3,6-Dihydropyrimidin-4-Yl)Methyl)-2-(3-(Methylsulfonamido)Bicyclo[1.1.1]Pentan-1-Yl)-3-Oxooctahydroimidazo [1,5-a]Pyrazine-8-Carboxylic Acid], the pEC50 in series [1] was 7.21. For the same compound, the CC50 at 5 days in series [2] is above 50000 nM.

For `CCOC(=O)C1=C(CN2CCN3C(=O)N(C45CCC(C(=O)O)(CC4)C5)C[C@@H]3C2)NC(c2nccs2)=N[C@H]1c1cccc(F)c1C` [Compound 59, 4-((S)-7-(((S)-5-(Ethoxycarbonyl)-6-(3-Fluoro-2-Methylphenyl)-2-(Thiazol-2-Yl)-3,6-Dihydropyrimidin-4-Yl)Methyl)-3-Oxohexahydroimidazo[1,5-a]Pyrazin-2(3H)-Yl)Bicyclo[2.2.1]Heptane-1-Carboxylic Acid], the negative logarithm of the EC50 (pEC50) in series [1] is 7.92. Besides, the CC50 at 5 days in series [2] was above 50000 nM.

Take `CCOC(=O)C1=C(CN2CCN3C(=O)N(C45CC(CF)(C4)C5)C[C@@H]3C2)NC(c2nccs2)=N[C@H]1c1cccc(F)c1C` [Compound 18, Ethyl (S)-4-(3-Fluoro-2-Methylphenyl)-6-(((S)-2-(3-(Fluoromethyl)Bicyclo[1.1.1]Pentan-1-Yl)-3-Oxohexahydroimidazo[1,5-a]Pyrazin-7(1H)-Yl)Methyl)-2-(Thiazol-2-Yl)-1,4-Dihydropyrimidine-5-Carboxylate]: the pEC50 in series [1] is 8.52. Moreover, in series [2], the CC50 at 5 days is above 50000 nM.

On to `CCOC(=O)C1=C(CN2CCN3C(=O)N(C45CC(CC(=O)O)(C4)C5)C[C@@H]3C2)NC(c2nccs2)=N[C@H]1c1ccc(F)cc1C` [Compound 37], for which, in series [1], the pEC50 was 7.74. Also, the CC50 at 5 days in series [2] was above 50000 nM.

As for `CCOC(=O)C1=C(CN2CCN3C(=O)N(C45CCC(C(=O)O)(CC4)CC5)C[C@@H]3C2)NC(c2nccs2)=N[C@H]1c1ccc(F)cc1C` [Compound 53, 4-((S)-7-(((S)-5-(Ethoxycarbonyl)-6-(4-Fluoro-2-Methylphenyl)-2-(Thiazol-2-Yl)-3,6-Dihydropyrimidin-4-Yl)Methyl)-3-Oxohexahydroimidazo[1,5-a]Pyrazin-2(3H)-Yl)Bicyclo[2.2.2]Octane-1-Carboxylic Acid], the pEC50 in series [1] is 8.05. In series [2], the CC50 at 5 days is above 50000 nM.
